# Assay results as given in PMC6112376, “Comprehensive Analyses and Prioritization of Tox21 10K Chemicals Affecting Mitochondrial Function by in-Depth Mechanistic Studies” (Environmental Health Perspectives, 2018).
# Like-named read-outs stand apart in the source and are kept apart here.
# Tests used:
# [1] = tested on: hNSC; assay: MMP assay in human neural stem cells (hNSC); type: cell-based; settings: Homo sapiens, Neural stem cell, 1 h, read-out: hNSC IC50 (MMP)
# [2] = tested on: HepG2 cells; assay: ROS-Glo hydrogen peroxide (ROS) assay; type: cell-based, human
# [3] = tested on: HepG2 cells; assay: Intracellular ATP content (cell viability) assay; type: cell-based, human; settings: Homo sapiens, HepG2, 40 h
# [4] = tested on: p53 (p53-bla HCT-116 cells); assay: p53 β-lactamase reporter gene assay; type: cell-based, human; settings: 16 h incubation; mean±SD of three experiments
# [5] = tested on: Nrf2/ARE (ARE-bla HepG2 cells); assay: ARE β-lactamase reporter gene assay; type: cell-based, human; settings: Homo sapiens, HepG2; 16 h incubation; mean±SD of three experiments; read-out: ARE (HepG2) EC50
# [6] = tested on: isolated rat liver mitochondria; assay: Oxygen consumption, Clark-type oxygen electrode; type: biochemical
# [7] = tested on: HeLa cells expressing YFP-Parkin; assay: Parkin translocation assay; type: cell-based, human
# [8] = tested on: rat primary hepatocytes
# [9] = tested on: HepG2 cells; settings: cited from earlier work
# [10] = tested on: HepG2 cells; assay: cells; settings: Homo sapiens
# [11] = tested on: Caenorhabditis elegans strain PE255; assay: In vivo C. elegans ATP status assay
# [12] = tested on: rat primary hepatocytes; assay: MMP assay in rat primary hepatocytes; settings: Rattus norvegicus, Hepatocyte
# [13] = tested on: Caenorhabditis elegans (Bristol N2); assay: C. elegans larval development and growth assay; settings: 0.5–100μM
smiles,measurement,setting,value
"CO[C@H]1/C=C/O[C@@]2(C)Oc3c(C)c(O)c4c(O)c(c(/C=N/N5CCN(C6CCCC6)CC5)c(O)c4c3C2=O)NC(=O)/C(C)=C\C=C\[C@H](C)[C@H](O)[C@@H](C)[C@@H](O)[C@@H](C)[C@H](OC(C)=O)[C@@H]1C [Rifapentine, reference compound]",IC50,[1],8.07 µM
same,ROS (HepG2) EC50,[2],Inactive
same,IC50,"[3]; read-out: ATP (HepG2, galactose) IC50",36 µM
same,IC50,"[3]; read-out: ATP (HepG2, glucose) IC50",43.4 µM
same,p53 (HCT-116) EC50,[4],Inactive
same,EC50,[5],29.3 ± 7.09 µM
same,Potential Mechanism,[6],Inactive
same,"I-ADP, % of control (O2 consumption rate)",[6]; 4 µM,88 (48.1) % of control
same,"I-sub, % of control (O2 consumption rate)",[6]; 4 µM,98 (12.8) % of control
same,"II-ADP, % of control (O2 consumption rate)",[6]; 4 µM,94 (82.6) % of control
same,"II-sub, % of control (O2 consumption rate)",[6]; 4 µM,92 (22.7) % of control
same,"I-ADP, % of control (O2 consumption rate)",[6]; 20 µM,86 (47.1) % of control
same,"I-sub, % of control (O2 consumption rate)",[6]; 20 µM,127 (16.7) % of control
same,"II-ADP, % of control (O2 consumption rate)",[6]; 20 µM,85 (75.2) % of control
same,"II-sub, % of control (O2 consumption rate)",[6]; 20 µM,101 (24.8) % of control
same,Parkin recruitment,[7],Inactive
same,Rat hepatocytes (efficacy) (MMP),[8],5.94±1.48 ( −73.4±10.2 ) %
same,MMP assays efficacy (%) qHTS-HepG2,[9],-104±16%
same,IC50,"[9]; read-out: MMP assays IC50 (µM), qHTS-HepG2",1.46 ± 0.26 µM
same,IC50,"[10]; HepG2, 1 h, read-out: HepG2 IC50 Galactose (MMP)",17.7 µM
same,IC50,"[10]; HepG2, 1 h, read-out: HepG2 IC50 Glucose (MMP)",13.9 µM
same,IC50,"[10]; HepG2, read-out: MMP assays IC50 (µM) HepG2",3.88 µM
same,Emax,"[10]; HepG2, read-out: MMP assays efficacy (%) HepG2",101%
same,effect on ATP content (in words),[11]; 0.5–100μM,statistically significant decreases in ATP content
same,minimal effective concentration,"[11]; Caenorhabditis elegans, read-out: LEC LUM: lowest effect concentration for luminescence, a measure of nematode ATP content",100 µM
same,IC50,"[12]; 1 h, read-out: Rat hepatocytes IC50 (MMP)",5.94 µM
same,IC50,[12]; read-out: MMP assays IC50 (µM) Rat Hepatocytes,0.62 ± 0.55 µM
same,effect on larval growth (in words),[13],did not affect growth
